For one test, the system named is T47-D cells. The test can be described thus: MTT cell proliferation assay, T47-D. It counts as cell-based, human. To be noted: 72 h. On the procedure: (§1) Cell lines, namely LNCaP, PC-3, T47-D and NHDF were obtained from American Type Culture Collection (ATCC; Manassas, VA, USA) and cultured in 75 cm^2 culture flasks at 37 °C in a humidified air incubator with 5% CO2. LNCaP, PC-3 and T47-D cells, which were used in passages 20th to 27th, 25th to 29th and 10th to 15th, respectively, were cultured in RPMI 1640 medium (Sigma-Aldrich, Inc., St. Louis, MO, USA) with 10% fetal bovine serum (FBS; Sigma-Aldrich, Inc. St. Louis, MO, USA) and 1% of the antibiotic mixture of 10,000 IU/mL penicillin G and […] of streptomycin (Sp, Sigma-Aldrich, Inc. St. Louis, MO, USA). Finally, NHDF cells (Normal Human Dermal Fibroblasts) were cultured in RPMI 1640 medium supplemented with 10% FBS, 2 mM L-glutamine, 10 mM HEPES, 1 mM sodium pyruvate and 1% of an antibiotic/antimycotic mixture (10,000 U/mL penicillin G, 100 mg/mL streptomycin and 25 µg/mL amphotericin B) (Ab; Sigma-Aldrich, Inc. St. Louis, MO, USA), and these cells were used in passages 10 to 12. For all cell types, the medium was renewed every 2–3 days until cells reach nearly the confluence state. Then, they were detached gently by trypsinization (trypsin-EDTA solution: 0.125 g/L of trypsin and 0.02 g/L of EDTA).
(§2) All the stock solutions were prepared by dissolving compounds in dimethyl sulfoxide (DMSO; Sigma-Aldrich, Inc., St. Louis, MO, USA) at 10 mM and stored at 4 °C. From these solutions, the several diluted compounds solutions in different concentrations were freshly prepared in a complete culture medium before each experiment.
(§3) As previously referred, cells were trypsinized after reaching a near confluence state and counted by the trypan blue exclusion assay in a Neubauer chamber. Then, 100 µL of cell suspension/well with an initial density of 2 × 10^4 cells/mL were seeded in 96-well culture plates (Nunc, Apogent, Denmark) and left to adhere for 48 h. After cells adherence, the medium was replaced by the distinct solutions of the compounds in the study (30 µM for preliminary studies and 0.01, 0.1, 1, 10, 50 and 100 µM for concentration–response studies) in the appropriate medium for approximately 72 h. 5-FU and finasteride were used as positive controls and untreated cells were used as the negative control. Each experiment was performed in quadruplicate and independently performed at least two times. The in vitro antiproliferative effects were evaluated by the MTT assay (Sigma-Aldrich, Inc. St. Louis, USA). After the incubation period, the medium was removed and 100 µL of phosphate buffer saline (NaCl 137 mM, KCl 2.7 mM, Na2HPO4 10 mM and KH2PO4 1.8 mM in deionized water and pH adjusted to 7.4) were used to wash the cells. Then, 100 µL of the MTT solution (5 mg/mL) was prepared in the appropriate serum-free medium and was added to each well, followed by incubation for 4 h at 37 °C. Hereafter, the MTT containing medium was removed and the formazan crystals were dissolved in DMSO. Then the absorbance was measured at 570 nm using a microplate spectrophotometer BIO-RAD xMarkTM. Cell viability values were expressed as percentages relative to the absorbance determined in the cells used as negative controls.
(§4) The data are expressed as a mean ± standard deviation (SD) and differences between groups were considered statistically significant when p < 0.05. The IC50 values were determined through sigmoidal fitting analysis with variable slope and considering a 95% confidence level. All data shown are representative of at least two independent experiments.

Test [1] concerns NHDF cells (Normal Human Dermal Fibroblasts). In words: MTT cell proliferation assay, NHDF. It counts as cell-based. To be noted: 72 h. On the procedure: as §1, §2, §3, §4
For another test, the system named is LNCaP cells. The test can be described thus: MTT cell proliferation assay, LNCaP. It counts as cell-based, human. To be noted: 72 h. On the procedure:
as §1, §2, §3, §4

The subject of test [2] is caspase-9 activity in T47-D cells. The test can be described thus: Caspase-Glo 9 caspase-9 activity assay. To be noted: 48 h, DOX 10 µM, 3g 10 and 20 µM, relative to untreated cells. It is filed as cell-based, human. On the procedure:
Promega Caspase-Glo 9 assay (Promega, Madison, WI, USA) was employed to evaluate the caspase-9 activity. T47-D cells were seeded in a 96 multiwell plate at a density of 4 × 10^4 cells/mL. After 48 h, cells were treated with the positive control, DOX, at 10 μM and with 10 and 20 μM of 3g, during 48 h. The assay was performed at the end of treatment, following the instructions provided by the manufacturer. Data are representative of at least two experiments (n = 4 in each).

The test system of a further test is PC-3 cells. In words: MTT cell proliferation assay, PC-3. It is filed as cell-based, human. On the procedure:
as §1, §2, §3, §4

As for `C[C@]12CC[C@H]3[C@@H](CC=C4NC(=O)CC[C@@]43C)[C@@H]1CC[C@@H]2C(=O)/C=C/c1cccnc1` [Compound 3g, 21E-[(Pyridin-3-yl)methylidene]-4-azapregn-5-ene-3,20-dione], the “MTT screening, cell proliferation” value in the test on T47-D cells (30 µM, average ± SD) is given as 1.0 ± 0.4 percentage of negative control; in test [1] (30 µM, average ± SD), 23.8 ± 3.2 percentage of negative control; in the test on LNCaP cells (30 µM, average ± SD) it was 0.7 ± 1.0 percentage of negative control; in the test with PC-3 cells (PC-3, 30 µM, 72 h, average ± SD), 0.1 ± 0.1 percentage of negative control. Besides, the concentration for half-maximal inhibition (IC50) in the test on T47-D cells (Homo sapiens, T47D, MTT) worked out at 1.33 µM; in test [1] (Homo sapiens, MTT), 3.09 µM; in the test with LNCaP cells (Homo sapiens, MTT) it was 10.2 µM; in the test with PC-3 cells (Homo sapiens, PC-3, 72 h, MTT), 3.64 µM. Further, the Caspase-9 activity entry in test [2] was “significant elevation in caspase-9 activity”.
